Results taken from patent US20100215638A1, “METHOD FOR TREATMENT OF PROSTATE CANCER AND SCREENING OF PATIENTS BENEFITING FROM SAID METHOD” (VALTION TEKNILLINEN TUTKIMUSKESKUS, priority 2006, published 2010).
Where two headings read alike, the source gives them in different places.

Experiments:
Type in all cases: cell-based, human
[1] = system: ERG-positive prostate cancer cell line VCaP; test: Bead-array gene expression with GSEA of MSigDB pathways
Procedure: Gene expression analysis by bead-arrays. Early passage VCaP and LNCaP cells were grown to approximately 70% confluence before treatments with 300 nM trichostatin A (Sigma) or 500 nM MS-275 (Sigma) for 6 and 12 hours. For androgen ablation, the cells were plated in androgen-deprived medium. 300 nM trichostatin A (Sigma) or 500 nM MS-275 (Sigma) were added for 6 hours and 12 hours before harvesting. Hormone-replacement treatment was performed by supplementing the full RPMI 1640 medium with 10% charcoal-stripped serum. Total RNA was extracted according to the manufacturer's protocol using Trizol reagent (Invitrogen, Carlsbad, Calif.). Integrity of the RNA prior to hybridization was monitored using a Bioanalyzer 2100 (Agilent, Santa Clara, Calif.) (according to manufacturer's instruction). […] The arrays were scanned with the BeadArray Reader (Illumina).
Statistical analysis. The raw data was quantile-normalized and analyzed by using the R/Bioconductor software (http://www.r-project.org/, http://www.bioconductor.org/). Mean for ERG signature genes for at least two replicates per condition was calculated and the treatment values were extracted from controls to illustrate the fold changes presented on Table 5. […]

ERG gene signature = test: Bead-array gene expression with GSEA of ERG gene signature reversal; conditions: 12 h treatment, 300 nM TSA or 500 nM MS-275
Procedure: Gene expression analysis by bead-arrays. Early passage VCaP and LNCaP cells were grown to approximately 70% confluence before treatments with 300 nM trichostatin A (Sigma) or 500 nM MS-275 (Sigma) for 6 and 12 hours. For androgen ablation, the cells were plated in androgen-deprived medium. 300 nM trichostatin A (Sigma) or 500 nM MS-275 (Sigma) were added for 6 hours and 12 hours before harvesting. Hormone-replacement treatment was performed by supplementing the full RPMI 1640 medium with 10% charcoal-stripped serum. Total RNA was extracted according to the manufacturer's protocol using Trizol reagent (Invitrogen, Carlsbad, Calif.). Integrity of the RNA prior to hybridization was monitored using a Bioanalyzer 2100 (Agilent, Santa Clara, Calif.) (according to manufacturer's instruction). 500 ng of purified total RNA was amplified with the TotalPrep Kit (Ambion, Austin, Tex.) and the biotin labelled cRNA was hybridized to Sentrix HumanRef-8 Expression BeadChips (Illumina, San Diego, Calif.). The arrays were scanned with the BeadArray Reader (Illumina).
Statistical analysis. The raw data was quantile-normalized and analyzed by using the R/Bioconductor software (http://www.r-project.org/, http://www.bioconductor.org/). Mean for ERG signature genes for at least two replicates per condition was calculated and the treatment values were extracted from controls to illustrate the fold changes presented on Table 5. Gene set enrichment analysis (GSEA) was performed for the HDAC inhibitor treatment and androgen ablation data with the GSEA software v2.0.1 (http://www.broad.mit.edu/gsea/). Our own previously defined ERG gene signature was used to evaluate the statistical significance of the signature reversal by HDAC inhibitors and androgen ablation (Table 6.). MSigDB gene sets were used for studying the pathways affected by HDAC inhibitors TSA and MS-275 in ERG-positive prostate cancer cell line VCaP (FIGS. 12 and 13).

[2] = system: VCaP prostate cancer cell; test: Cell titer blue assay of cell number after TSA treatment; conditions: 48 h incubation, 384-well plates 2000 cells/well
Procedure: (§1) FIG. 6. Analysis of the effect of Trichostatin A (TSA) treatment on VCaP and DuCaP prostate cancer cell number by using cell titer blue assay. Briefly, cells were plated in low concentration on 384-well plates (2000 cells/well) and let to attach overnight. Drug containing medium was added and CTB assay measurement with Envision Plate reader were done after 48 h incubation. […] For drawing the figure, cell culture medium only containing well intensities were extracted from actual measurements. Each data point is represented by the mean value of three independent measurements (mean+S.D.). Drug concentrations are presented on x-axis and relative cell number (control level set to 1) on y-axis. Statistical significance ([…]) of the differences between cell amounts in treated wells in comparison to untreated control wells is indicated with star using Student's t-test assuming that the data is unpaired and variance is unequal.

[3] = system: DuCaP prostate cancer cell; test: as above; conditions: 48 h incubation, 384-well plates 2000 cells/well
Procedure: as §1

| SMILES | effect on pathways associated to ERG-positive prostate tumors [1] | ES (Enrichement score) (ERG gene signature) | Gene set (number of genes showing core enrichment/total number of genes in the ERG gene set) (ERG gene signature) | NES (Normalized enrichment score) (ERG gene signature) | effect on cell number (relative cell number, cell titer blue assay) [2] | effect on cell number (relative cell number, cell titer blue assay) ([2]; listed as Trichostatin A) | effect on cell number (relative cell number, cell titer blue assay) [3] | effect on cell number (relative cell number, cell titer blue assay) ([3]; listed as Trichostatin A) | effect on pathways associated to ERG-positive prostate tumors ([1]; VCaP, GSEA with MSigDB gene sets) |
| --- | --- | --- | --- | --- | --- | --- | --- | --- | --- |
| Nc1ccccc1NC(=O)c1ccc(CNC(=O)OCc2cccnc2)cc1 [MS-275] | reverses the pathways associated to ERG-positive prostate tumors | – | – | – | – | – | – | – | – |
| CC(/C=C/C(=O)NO)=C\[C@@H](C)C(=O)c1ccc(N(C)C)cc1 [TSA, Trichostatin A] | – | −0.75 | 29/47 | −1.63 | clear dose dependent growth inhibition | strong responses | clear dose dependent growth inhibition | strong responses | reverses the pathways associated to ERG-positive prostate tumors |
